# Reference: patent publication US9975882B2, “Heteroaromatic compounds as BTK inhibitors” (Boehringer Ingelheim International GmbH, priority 2015, dated 2018)
# How the values were obtained:
# [1] = target: human recombinant BTK (full length, His-tagged) (Homo sapiens (Human), UniProt Q06187); experiment: BTK Z'-LYTE assay; assay type: biochemical; conditions: 25 μM ATP;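 further: FRET readout of kinase phosphorylating a coumarin and fluorescein labelled synthetic peptide, detected via protease sensitivity of unphosphorylated versus phosphorylated substrate, incubated at 22 °C in 384-well plates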
# human recombinant BTK (full length, His-tagged), sequence (Q06187 whole entry): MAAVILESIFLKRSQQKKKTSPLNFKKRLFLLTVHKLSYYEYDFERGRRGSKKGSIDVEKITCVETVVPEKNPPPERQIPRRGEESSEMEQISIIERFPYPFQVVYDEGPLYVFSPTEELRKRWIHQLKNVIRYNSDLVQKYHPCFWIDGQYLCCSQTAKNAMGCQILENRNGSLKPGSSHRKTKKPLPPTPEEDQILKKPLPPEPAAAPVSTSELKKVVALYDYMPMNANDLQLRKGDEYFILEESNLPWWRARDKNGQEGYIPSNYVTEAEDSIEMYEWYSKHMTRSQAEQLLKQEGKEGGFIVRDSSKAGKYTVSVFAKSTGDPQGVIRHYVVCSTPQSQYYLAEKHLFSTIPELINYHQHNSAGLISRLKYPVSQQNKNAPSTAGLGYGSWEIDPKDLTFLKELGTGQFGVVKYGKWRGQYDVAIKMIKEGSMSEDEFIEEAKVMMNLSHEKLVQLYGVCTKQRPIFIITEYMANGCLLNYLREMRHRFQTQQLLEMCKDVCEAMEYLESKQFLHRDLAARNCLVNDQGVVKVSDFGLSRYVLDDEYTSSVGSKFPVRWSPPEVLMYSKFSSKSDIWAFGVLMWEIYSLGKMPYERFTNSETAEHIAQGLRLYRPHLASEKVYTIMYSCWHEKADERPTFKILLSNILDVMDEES
# Experimental: Z′-LYTE™ Assay (Life Technologies):
# (§2) The Z′-Lyte assay employs a FRET-based, coupled-enzyme format and is based on the differential sensitivity of phosphorylated and non-phosphorylated peptides to proteolytic Cleavage. The activity of human recombinant BTK (full length, His-tagged), BMX (full length, His-tagged) or Txk (full length, GST-tagged) is estimated by measuring the phosphorylation of a synthetic FRET peptide substrate labeled with Coumarin and Fluorescein. […] Incubations are carried out at 22° C. in black polypropylene 384-well plates (Corning).
# (§3) Representative compounds of the present invention are assessed for inhibition of BTK, BMX, and TXK measuring phosphorylation of a substrate (Z′-LYTE™ assay, Life Technologies) and TEC measuring displacement of a “tracer” (Lanthscreen® Eu Kinase Binding assay, Life Technologies).
# [2] = test system: BTK (IL-6 production in primary CD19+ B cells); experiment: Inhibition of IL-6 production in B cells co-stimulated with ODN 2006 and anti-hIgD; assay type: cell-based; conditions: B-cell, anti-human IgD + ODN 2006
# Experimental: Inhibition of IL-6 Production in B Cells Co-Stimulated with ODN 2006 and anti-hIgD
# Primary CD19+ B cells (AllCells #PB010F) are thawed and plated in RPMI containing 10% HI FBS in a 384-well tissue cultured plate at 20,000 cells/well. The cells are treated with test compound (0.5% DMSO final concentration) and incubated for 1 hour at 37° C., 5% CO2. Cells are then stimulated with 5 ug/mL Goat F(ab′)2 anti-human IgD (SouthernBiotech #2032) and 2 uM ODN 2006 (InvivoGen #tlrl-2006) and incubated for 18-24 hours at 37° C., 5% CO2. IL-6 in the supernatant is measured using Meso Scale Discovery kit #K211AKB-6.
# (§1) Representative compounds of the present invention are tested and show BTK inhibition (Table I). […] Additionally, compounds of the present invention, as represented by examples in Table II, are selective for BTK inhibition over other related kinases. […] In this table the BTK activity is measured by IL-6 production in primary CD19^+ B cells, and the EGFR activity is measured by EGFR phosphorylation in A431 cells.
# [3] = target: human full length His-tagged BTK (Homo sapiens (Human), UniProt Q06187); experiment: BTK Lanthscreen Eu Kinase Binding assay; conditions: 2 nM BTK
# human full length His-tagged BTK, sequence (Q06187 whole entry): as above
# Experimental: BTK Lanthscreen® Eu Kinase Binding Assay:
# A Lanthscreen® Eu Kinase Binding assay (Life Technologies) is performed to quantitate the ability of test compounds to bind to BTK. The assay is based on the binding and displacement of Alexa Fluor647-labeled Kinase Tracer #236 to the ATP-binding site of human full length His-tagged BTK (Life Technologies cat #PV3587) with TR-FRET detection using a europium-labeled anti-His antibody. The assay is assembled in 384-well low volume NBS black plates (Corning) where 2 nM BTK and test compound in DMSO at varying concentrations are pre-incubated for 30 min at 28° C. in assay buffer consisting of 50 mM HEPES, pH 7.4, 10 mM MgCl2, 1 mM EGTA. 100 μM Na3VO4 and 0.01% Brij 35. Then, 2 nM of Eu-anti His antibody and 30 nM Kinase Tracer are added and incubated for 60 min at 28° C. Following incubation, TR-FRET signal is read on an Envision plate reader (Excitation: 340 nm; Emissions: 615 and 665 nm). The 665:615 nm emission ratio is calculated and converted to POC compared to control and blank wells.
# [4] = target: human recombinant Txk (full length, GST-tagged) (Homo sapiens (Human), UniProt P42681); experiment: TXK Z'-LYTE assay; conditions: read-out: TXK IC50, 100 μM ATP;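 further: FRET read-out of kinase phosphorylation of a synthetic peptide labelled with Coumarin and Fluorescein, scored by protease sensitivity of unphosphorylated peptide, incubated at 22 °C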
# human recombinant Txk (full length, GST-tagged), sequence (P42681 whole entry): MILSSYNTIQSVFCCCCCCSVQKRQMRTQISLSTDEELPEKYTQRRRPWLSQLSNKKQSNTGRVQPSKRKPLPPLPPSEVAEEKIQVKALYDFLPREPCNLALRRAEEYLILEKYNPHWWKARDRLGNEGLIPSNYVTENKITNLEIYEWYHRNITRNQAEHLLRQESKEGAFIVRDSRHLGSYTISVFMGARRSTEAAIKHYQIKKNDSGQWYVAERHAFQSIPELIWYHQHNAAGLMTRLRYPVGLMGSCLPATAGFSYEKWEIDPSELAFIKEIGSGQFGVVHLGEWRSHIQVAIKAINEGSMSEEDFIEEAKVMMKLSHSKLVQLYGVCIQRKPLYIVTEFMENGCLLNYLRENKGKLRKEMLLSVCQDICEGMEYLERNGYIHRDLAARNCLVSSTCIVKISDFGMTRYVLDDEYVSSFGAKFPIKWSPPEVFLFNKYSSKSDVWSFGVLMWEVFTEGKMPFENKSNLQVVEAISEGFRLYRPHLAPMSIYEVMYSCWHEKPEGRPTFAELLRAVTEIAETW
# Experimental: Z′-LYTE™ Assay (Life Technologies):
# as §2, §3
# [5] = target: human recombinant full length TEC (His-tagged) (Homo sapiens (Human), UniProt P42680); experiment: TEC Lanthscreen Eu Kinase Binding assay; conditions: 1 nM TEC
# human recombinant full length TEC (His-tagged), sequence (P42680 whole entry): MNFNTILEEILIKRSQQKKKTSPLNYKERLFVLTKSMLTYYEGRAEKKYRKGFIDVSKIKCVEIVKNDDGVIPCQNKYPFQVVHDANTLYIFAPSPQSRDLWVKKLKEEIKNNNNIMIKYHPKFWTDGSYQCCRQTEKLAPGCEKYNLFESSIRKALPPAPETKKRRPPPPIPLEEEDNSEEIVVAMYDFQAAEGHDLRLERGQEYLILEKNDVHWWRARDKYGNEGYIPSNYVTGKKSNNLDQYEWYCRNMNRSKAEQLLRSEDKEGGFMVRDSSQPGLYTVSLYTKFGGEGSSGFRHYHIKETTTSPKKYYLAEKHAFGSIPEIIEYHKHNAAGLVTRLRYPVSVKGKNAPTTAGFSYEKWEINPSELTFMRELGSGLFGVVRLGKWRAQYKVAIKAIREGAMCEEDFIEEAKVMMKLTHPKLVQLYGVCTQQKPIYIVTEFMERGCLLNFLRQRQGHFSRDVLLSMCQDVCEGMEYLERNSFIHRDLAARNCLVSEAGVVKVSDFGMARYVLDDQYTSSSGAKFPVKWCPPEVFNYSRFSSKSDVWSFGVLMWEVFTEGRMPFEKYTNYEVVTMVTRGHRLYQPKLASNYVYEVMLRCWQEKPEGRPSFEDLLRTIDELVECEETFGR
# [6] = target: EGFR (EGFR phosphorylation in A431 cells) (Homo sapiens (Human), UniProt P00533); experiment: Inhibition of EGFR autophosphorylation in A431 human epithelial cells stimulated with EGF; assay type: cell-based; conditions: EGF 60 ng/mL, read-out: A431 p-EGFR IC50
# EGFR (EGFR phosphorylation in A431 cells), sequence (P00533 25-1210): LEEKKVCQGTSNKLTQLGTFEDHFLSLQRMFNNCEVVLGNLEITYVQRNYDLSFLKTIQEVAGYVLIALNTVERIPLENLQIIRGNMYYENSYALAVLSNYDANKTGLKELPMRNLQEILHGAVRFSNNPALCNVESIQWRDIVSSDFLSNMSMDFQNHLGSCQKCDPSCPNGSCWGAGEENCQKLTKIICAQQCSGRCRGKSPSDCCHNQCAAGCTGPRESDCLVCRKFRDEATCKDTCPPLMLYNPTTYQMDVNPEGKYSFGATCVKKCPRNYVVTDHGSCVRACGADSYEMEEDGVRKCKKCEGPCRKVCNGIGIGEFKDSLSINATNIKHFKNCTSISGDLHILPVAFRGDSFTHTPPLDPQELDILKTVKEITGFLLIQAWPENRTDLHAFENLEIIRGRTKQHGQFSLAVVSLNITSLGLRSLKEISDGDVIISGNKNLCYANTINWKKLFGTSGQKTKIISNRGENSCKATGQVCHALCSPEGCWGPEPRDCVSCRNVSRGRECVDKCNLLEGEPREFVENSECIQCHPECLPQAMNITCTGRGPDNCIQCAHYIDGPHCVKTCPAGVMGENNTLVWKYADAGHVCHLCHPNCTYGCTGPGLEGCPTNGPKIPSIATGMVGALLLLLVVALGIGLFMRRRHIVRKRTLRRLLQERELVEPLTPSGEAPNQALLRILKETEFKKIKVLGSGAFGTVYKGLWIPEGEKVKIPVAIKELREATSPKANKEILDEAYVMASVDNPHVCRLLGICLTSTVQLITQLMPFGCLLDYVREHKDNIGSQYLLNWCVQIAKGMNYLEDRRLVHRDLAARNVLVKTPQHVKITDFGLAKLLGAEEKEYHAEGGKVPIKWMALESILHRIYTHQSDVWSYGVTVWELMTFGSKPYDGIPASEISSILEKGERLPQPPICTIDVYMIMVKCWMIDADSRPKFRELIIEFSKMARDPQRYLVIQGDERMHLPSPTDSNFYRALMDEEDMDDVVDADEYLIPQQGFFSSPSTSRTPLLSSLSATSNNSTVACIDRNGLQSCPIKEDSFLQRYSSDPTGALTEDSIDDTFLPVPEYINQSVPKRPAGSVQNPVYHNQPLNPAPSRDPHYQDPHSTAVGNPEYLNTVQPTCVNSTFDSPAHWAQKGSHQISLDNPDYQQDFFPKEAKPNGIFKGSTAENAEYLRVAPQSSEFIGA
# Experimental: Inhibition of EGFR Autophosphorylation in A431 Human Epithelial Cells Stimulated with Epithelial Growth Factor
# A431 cells (ATCC #CRL-1555 FZ) are thawed and plated in DMEM containing 10% FBS in a 384-well tissue culture treated plate at 15,000 cells/well. After incubating for 24 hours at 37° C., 5% CO2, the cells are treated with test compound (1% DMSO final concentration) and incubated for 16 hours at 37° C., 5% CO2. EGF (Millipore, 01-107) is added at a final concentration of 60 ng/mL and incubated for 10 minutes. The medium is removed, the cells are lysed, and phospho EGFR is measured (Meso Scale Diagnostics, N31CB-1).
# as §1
IC50 [1] [nM],IC50 [2] [nM],IC50 [3] [nM],IC50 [4] [nM],IC50 [5] [nM],IC50 [6] [nM],Compound
2.2,0.7,0.6,150,120,> 10000,CC#CC(=O)N1CC[C@]2(C1)C[C@H](n1nc(-c3cnn(Cc4cccc(F)c4C(F)(F)F)c3)c(C(N)=O)c1N)C2 [Example 56]
3,2.4,0.6,160,64,> 10000,CC#CC(=O)N1CC[C@]2(C1)C[C@H](n1nc(-c3cnn(Cc4ccc(F)c(C(F)(F)F)c4)c3)c(C(N)=O)c1N)C2 [Example 30]
18,4,2.6,3000,430,> 10000,C=CC(=O)N1CC[C@]2(C1)C[C@H](n1nc(-c3cnn(Cc4cccc(C(F)(F)F)c4F)c3)c(C(N)=O)c1N)C2 [Example 26]
,8,,,,> 10000,CC#CC(=O)N1CC[C@]2(C1)C[C@H](n1nc(-c3cnn([C@H](C)c4cccc(C(F)(F)F)c4)c3)c(C(N)=O)c1N)C2 [Example 18]
19,6.1,2.6,850,160,> 10000,CC#CC(=O)N1CC[C@]2(C1)C[C@H](n1nc(-c3ccn(Cc4cccc(C(F)(F)F)c4)n3)c(C(N)=O)c1N)C2 [Example 25]
7,0.5,1.2,260,100,> 10000,CC#CC(=O)N1CC[C@]2(C1)C[C@H](n1nc(-c3cn(Cc4cccc(C)c4)nc3C)c(C(N)=O)c1N)C2 [Example 52]
1.5,0.4,0.5,110,35,> 10000,CC#CC(=O)N1CC[C@]2(C1)C[C@H](n1nc(-c3cnn(Cc4ccccc4Cl)c3)c(C(N)=O)c1N)C2 [Example 54]
8.3,4.5,1.3,600,130,> 10000,CC#CC(=O)N1CC[C@]2(C1)C[C@H](n1nc(-c3cnn(Cc4cccc(C(F)(F)F)c4)c3)c(C(N)=O)c1NC)C2 [Example 23]
5,2.3,0.9,220,160,> 10000,CC#CC(=O)N1CC[C@]2(C1)C[C@H](n1nc(-c3cn(Cc4cccc(C(F)(F)F)c4)nc3C)c(C(N)=O)c1N)C2 [Example 19]
,3.4,,,,> 10000,CC#CC(=O)N1CC[C@]2(C1)C[C@H](n1nc(-c3cnn(Cc4ccc(Cl)c(C(F)(F)F)c4)c3)c(C(N)=O)c1N)C2 [Example 58]
1.4,1.1,0.5,100,120,> 10000,CC#CC(=O)N1CC[C@]2(C1)C[C@H](n1nc(-c3cnn(Cc4cccc(C(F)(F)F)c4C#N)c3)c(C(N)=O)c1N)C2 [Example 10]
,72,,,,> 10000,CC#CC(=O)N1CC[C@]2(C1)C[C@H](n1nc(-c3cnn(Cc4cc(C(F)(F)F)ccc4OC)c3)c(C(N)=O)c1N)C2 [Example 7]
1.3,1.2,0.4,59,48,> 10000,CC#CC(=O)N1CC[C@]2(C1)C[C@H](n1nc(-c3cnn(Cc4cccc(C(F)(F)F)c4F)c3)c(C(N)=O)c1N)C2 [Example 33]
1.2,,0.3,95,39,,CC#CC(=O)N1CC[C@]2(C1)C[C@H](n1nc(-c3cnn(Cc4cccc(F)c4)c3)c(C(N)=O)c1N)C2 [Example 28]
2.5,1.5,0.7,79,67,> 10000,CC#CC(=O)N1CC[C@]2(C1)C[C@H](n1nc(-c3cnn(Cc4cc(F)ccc4Cl)c3)c(C(N)=O)c1N)C2 [Example 55]
1.3,0.4,0.3,84,47,> 10000,CC#CC(=O)N1CC[C@]2(C1)C[C@H](n1nc(-c3cnn(Cc4cccc(F)c4Cl)c3)c(C(N)=O)c1N)C2 [Example 53]
,2.5,,,,> 10000,CC#CC(=O)N1CC[C@]2(C1)C[C@H](n1nc(-c3cnn(Cc4cc(C(F)(F)F)ccc4Cl)c3)c(C(N)=O)c1N)C2 [Example 8]
40,9.2,5.8,1900,1100,> 10000,CC#CC(=O)N1CC[C@]2(C1)C[C@H](n1nc(-c3c(C)nn(Cc4cccc(C(F)(F)F)c4)c3C)c(C(N)=O)c1N)C2 [Example 21]
1.7,0.6,0.5,100,35,> 10000,CC#CC(=O)N1CC[C@]2(C1)C[C@H](n1nc(-c3cnn(Cc4ccccc4F)c3)c(C(N)=O)c1N)C2 [Example 60]
1.9,1.3,0.5,,,> 10000,CC#CC(=O)N1CC[C@]2(C1)C[C@H](n1nc(-c3cnn(Cc4cc(C(F)(F)F)ccc4F)c3)c(C(N)=O)c1N)C2 [Example 32]
1.7,1.1,0.5,,92,> 10000,CC#CC(=O)N1CC[C@]2(C1)C[C@H](n1nc(-c3cnn(Cc4cccc(C(F)(F)F)n4)c3)c(C(N)=O)c1N)C2 [Example 14]
3.6,,0.8,92,,,CC#CC(=O)N1CC[C@]2(C1)C[C@H](n1nc(-c3cnn(Cc4ccc(F)cc4)c3)c(C(N)=O)c1N)C2 [Example 29]
,1.2,,,,> 10000,CC#CC(=O)N1CC[C@]2(C1)C[C@H](n1nc(-c3cnn(Cc4cccc(C(F)(F)F)c4Cl)c3)c(C(N)=O)c1N)C2 [Example 3]
0.8,1.9,0.3,12,18,> 10000,CC#CC(=O)N1CC[C@]2(C1)C[C@H](n1nc(-c3cnn(Cc4cccc(C5CC5)c4)c3)c(C(N)=O)c1N)C2 [Example 51]
6.6,3.4,1.7,,66,> 10000,CC#CC(=O)N1CC[C@]2(C1)C[C@H](n1nc(-c3cnn(Cc4cccc(Cl)c4)c3)c(C(N)=O)c1NC)C2 [Example 27]
,0.3,,,,> 10000,CC#CC(=O)N1CC[C@]2(C1)C[C@H](n1nc(-c3cnn(Cc4cccc(Cl)c4)c3)c(C(N)=O)c1N)C2 [Example 2]
1.5,1,0.4,43,65,> 10000,CC#CC(=O)N1CC[C@]2(C1)C[C@H](n1nc(-c3cnn(Cc4cccc(C(F)(F)F)c4C)c3)c(C(N)=O)c1N)C2 [Example 6]
0.8,0.4,0.3,68,,> 10000,CC#CC(=O)N1CC[C@]2(C1)C[C@H](n1nc(-c3cnn(Cc4cccc(F)c4F)c3)c(C(N)=O)c1N)C2 [Example 59]
1.8,,0.7,150,73,,CC#CC(=O)N1CC[C@]2(C1)C[C@H](n1nc(-c3cnn(Cc4ccccc4C#N)c3)c(C(N)=O)c1N)C2 [Example 11]
